Assays:
Type in all cases: in vivo
[1] = test system: green peach aphid (Myzus persicae); assay: Myzus persicae spray test (MYZUPE); conditions: 120 h, 100 g/ha, after 5 days
Method: Myzus persicae—Spray Test
• Solvent: 78.0 parts by weight acetone • 1.5 parts by weight dimethylformamide • Emulsifier: alkylarylpoly glycol ether
(§1) To produce a suitable preparation of active compound, 1 part by weight of active compound is mixed with the stated amount of solvents and is diluted with water, containing an emulsifier concentration of 1000 ppm, to the desired concentration. Further test concentrations are prepared by dilution with emulsifier containing water.
Chinese cabbage (Brassica pekinensis) leaf disks infected with all instars of the green peach aphid (Myzus persicae), are sprayed with a preparation of the active ingredient of the desired concentration.
After 5 days mortality in % is determined. 100% means all aphids have been killed and 0% means none of the aphids have been killed.
Myzus persicae—Spray Test (MYZUPE)
• Solvent: 78.0 parts by weight acetone • 1.5 parts by weight dimethylformamide • Emulsifier: alkylarylpolyglycol ether
After the specified period of time, mortality in % is determined. 100% means all aphids have been killed and 0% means none of the aphids have been killed.

[2] = test system: brown planthopper (Nilaparvata lugens); assay: Nilaparvata lugens spray test; conditions: 96 h
Method: Nilaparvata lugens—Spray Test
• Solvent: 78.0 parts by weight of acetone • 1.5 parts by weight of dimethylformamide • Emulsifier: alkylarylpolyglycol ether
as §1
Rice plants (Oryza sativa) are sprayed with a preparation of the active ingredient of the desired concentration and the plants are infested with the brown planthopper (Nilaparvata lugens).
After 4 days mortality in % is determined. 100% means all planthoppers have been killed and 0% means none of the planthoppers have been killed.

[3] = test system: larvae of the southern green stink bug (Nezara viridula); assay: whole plant or invertebrate; conditions: 96 h
Method in brief: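 Compound in acetone/DMF was diluted in water with 1000 ppm alkylarylpolyglycol ether emulsifier. Barley plants were sprayed with it, then infested with Nezara viridula larvae. Mortality % was scored after 4 days (100% = all killed).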

[4] = test system: fall armyworm larvae (Spodoptera frugiperda); assay: whole plant or invertebrate; conditions: 168 h
Method in brief: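 Maize leaf sections sprayed with compound in acetone/DMF with alkylarylpolyglycol ether emulsifier diluted in water, then infested with fall armyworm larvae once dry. Mortality (%) scored after 7 days; 100% = all caterpillars killed.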

[5] = test system: larvae of the banded cucumber beetle (Diabrotica balteata); assay: Diabrotica balteata spray test; conditions: 168 h, 100 g/ha (=32 μg/well), after 7 days, read-out: efficacy (seedling growth)
Method in brief: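 Germinated wheat seeds on agar (5 per well) were sprayed with compound formulated in acetone/DMF and diluted in water with 1000 ppm emulsifier. Each unit was then infested with 10–20 larvae. Efficacy % was scored after 7 days as seedling growth relative to an untreated, uninfested control (100% = normal growth).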

[6] = test system: adult mosquitoes Aedes aegypti strain MONHEIM; assay: Aedes aegypti test (AEDSAE surface treatment & contact assay); conditions: 24 hours after contact, read-out: efficacy (mortality); for mortality at 20 mg/m2: surface concentration 20 mg/m^2, 30 min exposure; for mortality at 4 mg/m2: surface concentration 4 mg/m^2, 30 min exposure
Method: Aedes aegypti Test (AEDSAE Surface Treatment & Contact Assay)
Solvent: Aceton+2000 ppm rapeseed oil methyl ester (RME)
This solution is pipetted onto a glazed tile and after evaporation of the acetone, adult mosquitoes of the species Aedes aegypti strain MONHEIM are placed onto the dried surface. The exposure time is 30 minutes. Mortality in percent (%) is determined 24 hours after contact of the insects to the treated surface. 100% mortality means that all tested insects are dead, whereas 0% means that no insect died.

[7] = test system: cattle tick larvae (Rhipicephalus microplus), strain Parkhurst, resistant against synthetic pyrethroids; assay: Rhipicephalus (Boophilus) microplus in-vitro contact test, larval cattle tick; conditions: 5 μg/cm^2 (=500 g/ha), after 48 hours
Method: Rhipicephalus (Boophilus) Microplus—In-Vitro Contact Tests Larval Cattle Tick (Strain Parkhurst, Resistant Against Synthetic Pyrethroids)
9 mg compound is solved in 1 mL acetone and diluted with acetone to the desired concentration. 250 μL of the test solution is filled in 25 mL glass test tubes and homogeneously distributed on the inner walls by rotation and tilting on a shaking device (2 h at 30 rpm). With a compound concentration of 900 ppm, an inner surface of 44.7 cm^2 and a homogeneous distribution, a dose of 5 μg/cm^2 is achieved.
After the solvent has evaporated, each test tube is filled with 20-50 cattle tick larvae (Rhipicephalus microplus), closed with a perforated lid and incubated in a horizontal position at 85% relative humidity and 27° C. in an incubator. After 48 hours efficacy is determined. The larvae are patted on the ground of the tubes and negative geotactic behavior is recorded.
An efficacy of 100% means all larvae are dead or moribund; 0% means no larvae are dead or moribund.

SMILES | mortality at 100 g/ha [1] [%] | mortality at 500 g/ha [2] [%] | mortality at 100 g/ha [3] [%] | mortality at 500 g/ha [3] [%] | mortality at 100 g/ha [4] [%] | pest or weed control at 32 µg/disc, 100 g/ha [5] [%] | mortality at 20 mg/m2 [6] [%] | efficacy (larvae dead or moribund) [7] [%] | mortality at 4 mg/m2 [6] [%]
C[C@H](NC(=O)c1cc(Cl)cc(S(=O)(=O)C(F)(F)F)c1)c1ncnn1-c1cc(C#N)ncn1 [I-7] | 100 | 90 | 90 | 100 | 100 | 100 | 80 to 100 |  | 
C[C@H](NC(=O)c1cc(C(F)(F)F)cc(S(C)(=O)=O)c1)c1ncnn1-c1cc(C#N)ncn1 [I-2] |  |  |  |  |  | 80 | 80 to 100 | 100 | 80 to 100
C[C@H](NC(=O)c1cc(OC(F)(F)F)cc(OC(F)(F)F)c1)c1nc(C2CC2)nn1-c1cc(C#N)ncn1 [I-37] |  |  |  |  |  | 80 |  | 100 | 
C[C@H](NC(=O)c1cc(Cl)nc(C2(C#N)CC2)c1)c1ncnn1-c1cc(C#N)ncn1 [I-35, 2-chloro-6-(1-cyanocyclopropyl)-N-[(1S)-1-[2-(6-cyanopyrimidin-4-yl)-1,2,4-triazol-3-yl]ethyl]pyridine-4-carboxamide] |  |  |  |  | 100 | 100 |  | 100 | 
Cc1nc([C@H](C)NC(=O)c2cc(Cl)cc(C(F)(F)F)c2)n(-c2cc(C#N)ncn2)n1 [I-41] | 100 |  |  | 90 | 100 | 100 |  |  | 80 to 100
C[C@H](NC(=O)c1cc(OC(F)(F)F)cc(S(C)(=O)=O)c1)c1ncnn1-c1cc(C#N)ncn1 [I-19] | 100 |  | 90 | 100 | 100 | 100 | 80 to 100 |  | 80 to 100
Cc1nc([C@H](C)NC(=O)c2cc(OC(F)(F)F)cc(C3CC3)c2)n(-c2cc(C#N)ncn2)n1 [I-25] |  |  |  | 100 | 100 | 100 | 80 to 100 |  | 80 to 100
Cc1nc([C@H](C)NC(=O)c2cc(C(F)(F)F)cc(C(F)(F)F)c2)n(-c2cc(C(N)=O)ncn2)n1 [I-136] | 90 | 100 |  | 100 | 100 | 100 |  |  | 
C[C@H](NC(=O)c1cccc(S(=O)(=O)C(F)(F)F)c1)c1ncnn1-c1cc(C(N)=O)ncn1 [I-140] | 100 | 90 |  | 100 | 100 | 100 |  |  | 
C[C@H](NC(=O)c1cc(OC(F)(F)F)cc(C2(C#N)CC2)c1)c1ncnn1-c1cc(C(N)=O)ncn1 [I-120] | 90 | 100 | 100 | 100 | 100 | 100 |  |  | 
CNC(=O)c1cc(-n2ncnc2[C@H](C)NC(=O)c2cc(Br)cc(OC(F)F)c2)ncn1 [I-72] | 90 | 100 |  | 100 | 100 | 80 |  |  | 
CC(C)N(C)C(=O)c1cc(-n2ncnc2[C@H](C)NC(=O)c2cc(Br)cc(Br)c2)ncn1 [I-40] | 90 |  |  |  | 100 | 100 | 80 to 100 |  | 
Cc1nc([C@H](C)NC(=O)c2cc(OC(F)F)cc(OC(F)F)c2)n(-c2cc(C#N)ncn2)n1 [I-22] |  |  |  | 100 | 100 | 100 |  | 100 | 
C[C@H](NC(=O)c1cc(F)cc(OC(F)F)c1)c1ncnn1-c1cc(C(N)=O)ncn1 [I-79] | 100 | 100 |  | 100 | 100 | 100 |  |  | 
